Laboratory results as given in patent US8192962B2, “Processes for detecting toxic substances” (Daikin Industries, Ltd., priority 2001, dated 2012).

Tested on: Energy system protein genes
Test: DNA chip mRNA expression in yeast, energy system protein genes (Table 4)
Assay type: cell-based, Saccharomyces cerevisiae S288C
Method in brief: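 Expression change after 2 h toxicant exposure (growth-inhibiting, sub-lethal) of log-phase S. cerevisiae S288C at 25° C. Oligo-dT-purified mRNA was labeled with Cy3-dUTP or Cy5-dUTP and hybridized >12 h at 65° C. to a genome-wide chip; ratio of scanned fluorescence to control.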

Structure (SMILES): N#Cc1c(Cl)c(Cl)c(Cl)c(C#N)c1Cl [(9), 2,4,5,6-tetrachloro-1,3-benzenedicarbonitrile]
- The level of expressed mRNA in the presence of chemical substance/The level of expressed mRNA in the absence of chemical substance (yeast gene YJL121C, cells incubated two hours with the chemical substance): 0.1
- The level of expressed mRNA in the presence of chemical substance/The level of expressed mRNA in the absence of chemical substance (yeast gene YJL166W, cells incubated two hours with the chemical substance): 1.3
- The level of expressed mRNA in the presence of chemical substance/The level of expressed mRNA in the absence of chemical substance (yeast gene YJL216C, cells incubated two hours with the chemical substance): 1.5
- The level of expressed mRNA in the presence of chemical substance/The level of expressed mRNA in the absence of chemical substance (yeast gene YJR009C): 1.1
- The level of expressed mRNA in the presence of chemical substance/The level of expressed mRNA in the absence of chemical substance (yeast gene YJR048W): 0.5
- The level of expressed mRNA in the presence of chemical substance/The level of expressed mRNA in the absence of chemical substance (yeast gene YJR121W, cells incubated two hours with the chemical substance): 0.8
- The level of expressed mRNA in the presence of chemical substance/The level of expressed mRNA in the absence of chemical substance (yeast gene YJR155W): 38.2
- The level of expressed mRNA in the presence of chemical substance/The level of expressed mRNA in the absence of chemical substance (yeast gene YKL016C, cells incubated two hours with the chemical substance): 1.3
- The level of expressed mRNA in the presence of chemical substance/The level of expressed mRNA in the absence of chemical substance (yeast gene YKL060C, cells incubated two hours with the chemical substance): 0.3
- The level of expressed mRNA in the presence of chemical substance/The level of expressed mRNA in the absence of chemical substance (yeast gene YKL141W, cells incubated two hours with the chemical substance): 0.8
- The level of expressed mRNA in the presence of chemical substance/The level of expressed mRNA in the absence of chemical substance (yeast gene YKL148C, cells incubated two hours with the chemical substance): 1.7
- The level of expressed mRNA in the presence of chemical substance/The level of expressed mRNA in the absence of chemical substance (yeast gene YKL150W): 1.1
- The level of expressed mRNA in the presence of chemical substance/The level of expressed mRNA in the absence of chemical substance (yeast gene YKR009C, cells incubated two hours with the chemical substance): 2.4
- The level of expressed mRNA in the presence of chemical substance/The level of expressed mRNA in the absence of chemical substance (yeast gene YKR058W, cells incubated two hours with the chemical substance, 25° C., YPD medium): 1.3
- The level of expressed mRNA in the presence of chemical substance/The level of expressed mRNA in the absence of chemical substance (yeast gene YKR097W): 1.9
- The level of expressed mRNA in the presence of chemical substance/The level of expressed mRNA in the absence of chemical substance (yeast gene YLL041C, cells incubated two hours with the chemical substance): 0.7
- The level of expressed mRNA in the presence of chemical substance/The level of expressed mRNA in the absence of chemical substance (yeast gene YLR038C, cells incubated two hours with the chemical substance): 0.4
- The level of expressed mRNA in the presence of chemical substance/The level of expressed mRNA in the absence of chemical substance (yeast gene YLR134W, cells incubated two hours with the chemical substance): 0.1
- The level of expressed mRNA in the presence of chemical substance/The level of expressed mRNA in the absence of chemical substance (yeast gene YLR258W, cells incubated two hours with the chemical substance): 0.8
- The level of expressed mRNA in the presence of chemical substance/The level of expressed mRNA in the absence of chemical substance (yeast gene YLR284C, cells incubated two hours with the chemical substance): 0.9
- The level of expressed mRNA in the presence of chemical substance/The level of expressed mRNA in the absence of chemical substance (yeast gene YLR295C, cells incubated two hours with the chemical substance, 25° C., YPD medium): 1.4
- The level of expressed mRNA in the presence of chemical substance/The level of expressed mRNA in the absence of chemical substance (yeast gene YLR304C, cells incubated two hours with the chemical substance): 0.1
- The level of expressed mRNA in the presence of chemical substance/The level of expressed mRNA in the absence of chemical substance (yeast gene YLR345W): 4.5
- The level of expressed mRNA in the presence of chemical substance/The level of expressed mRNA in the absence of chemical substance (yeast gene YLR354C, cells incubated two hours with the chemical substance): 0.4
- The level of expressed mRNA in the presence of chemical substance/The level of expressed mRNA in the absence of chemical substance (yeast gene YLR377C, cells incubated two hours with the chemical substance): 1.8
- The level of expressed mRNA in the presence of chemical substance/The level of expressed mRNA in the absence of chemical substance (yeast gene YLR395C, cells incubated two hours with the chemical substance): 1.0
- The level of expressed mRNA in the presence of chemical substance/The level of expressed mRNA in the absence of chemical substance (yeast gene YML087C): 1.9
- The level of expressed mRNA in the presence of chemical substance/The level of expressed mRNA in the absence of chemical substance (yeast gene YML120C, cells incubated two hours with the chemical substance): 1.3
- The level of expressed mRNA in the presence of chemical substance/The level of expressed mRNA in the absence of chemical substance (yeast gene YML129C, cells incubated two hours with the chemical substance): 1.4
- The level of expressed mRNA in the presence of chemical substance/The level of expressed mRNA in the absence of chemical substance (yeast gene YMR073C, cells incubated two hours with the chemical substance): 1.2
- The level of expressed mRNA in the presence of chemical substance/The level of expressed mRNA in the absence of chemical substance (yeast gene YMR118C): 9.3
- The level of expressed mRNA in the presence of chemical substance/The level of expressed mRNA in the absence of chemical substance (yeast gene YMR205C, cells incubated two hours with the chemical substance): 0.3
- The level of expressed mRNA in the presence of chemical substance/The level of expressed mRNA in the absence of chemical substance (yeast gene YMR261C, cells incubated two hours with the chemical substance): 1.6
- The level of expressed mRNA in the presence of chemical substance/The level of expressed mRNA in the absence of chemical substance (yeast gene YMR267W, cells incubated two hours with the chemical substance, 25° C., YPD medium): 0.4
- The level of expressed mRNA in the presence of chemical substance/The level of expressed mRNA in the absence of chemical substance (yeast gene YMR323W, cells incubated two hours with the chemical substance): 0.5
- The level of expressed mRNA in the presence of chemical substance/The level of expressed mRNA in the absence of chemical substance (yeast gene YNL071W): 1.1
- The level of expressed mRNA in the presence of chemical substance/The level of expressed mRNA in the absence of chemical substance (yeast gene YNL202W, cells incubated two hours with the chemical substance): 1.3
- The level of expressed mRNA in the presence of chemical substance/The level of expressed mRNA in the absence of chemical substance (yeast gene YNL241C): 3.4
- The level of expressed mRNA in the presence of chemical substance/The level of expressed mRNA in the absence of chemical substance (yeast gene YNL331C): 42.6
- The level of expressed mRNA in the presence of chemical substance/The level of expressed mRNA in the absence of chemical substance (yeast gene YOL086C, cells incubated two hours with the chemical substance): 0.1
- The level of expressed mRNA in the presence of chemical substance/The level of expressed mRNA in the absence of chemical substance (yeast gene YOL165C): 46.9
- The level of expressed mRNA in the presence of chemical substance/The level of expressed mRNA in the absence of chemical substance (yeast gene YOR142W, cells incubated two hours with the chemical substance): 1.1
- The level of expressed mRNA in the presence of chemical substance/The level of expressed mRNA in the absence of chemical substance (yeast gene YOR178C, cells incubated two hours with the chemical substance): 0.2
- The level of expressed mRNA in the presence of chemical substance/The level of expressed mRNA in the absence of chemical substance (yeast gene YOR388C, cells incubated two hours with the chemical substance): 0.1
- The level of expressed mRNA in the presence of chemical substance/The level of expressed mRNA in the absence of chemical substance (yeast gene YPL031C, cells incubated two hours with the chemical substance): 5.7
- The level of expressed mRNA in the presence of chemical substance/The level of expressed mRNA in the absence of chemical substance (yeast gene YPL061W, cells incubated two hours with the chemical substance): 1.3
- The level of expressed mRNA in the presence of chemical substance/The level of expressed mRNA in the absence of chemical substance (yeast gene YPL088W): 0.6
- The level of expressed mRNA in the presence of chemical substance/The level of expressed mRNA in the absence of chemical substance (yeast gene YPL171C): 60.0
- The level of expressed mRNA in the presence of chemical substance/The level of expressed mRNA in the absence of chemical substance (yeast gene YPL240C): 3.5
- The level of expressed mRNA in the presence of chemical substance/The level of expressed mRNA in the absence of chemical substance (yeast gene YPL262W, cells incubated two hours with the chemical substance): 1.4
- The level of expressed mRNA in the presence of chemical substance/The level of expressed mRNA in the absence of chemical substance (yeast gene YPL275W, cells incubated two hours with the chemical substance): 0.2
- The level of expressed mRNA in the presence of chemical substance/The level of expressed mRNA in the absence of chemical substance (yeast gene YPR048W, cells incubated two hours with the chemical substance): 4.0
- The level of expressed mRNA in the presence of chemical substance/The level of expressed mRNA in the absence of chemical substance (yeast gene YPR184W, cells incubated two hours with the chemical substance): 1.9
